Measurements: ChEMBL document CHEMBL4602709 (ACS Med Chem Lett, 2020)

Assays:
[1] = Cytotoxicity against HEK293 cells assessed as reduction in cell viability incubated for 72 hrs by Cell Titer Glo 2.0 reagent based assay; settings: human
[2] = molecular target: T1, Discoidin domain-containing receptor 2 (Homo sapiens, UniProt Q16832); assay: Inhibition of DDR2 (unknown origin) assessed as residual activity incubated for 5 mins in presence of [gamma-33ATP] by scintillation counting based radiometry assay
T1 sequence (Q16832 whole entry): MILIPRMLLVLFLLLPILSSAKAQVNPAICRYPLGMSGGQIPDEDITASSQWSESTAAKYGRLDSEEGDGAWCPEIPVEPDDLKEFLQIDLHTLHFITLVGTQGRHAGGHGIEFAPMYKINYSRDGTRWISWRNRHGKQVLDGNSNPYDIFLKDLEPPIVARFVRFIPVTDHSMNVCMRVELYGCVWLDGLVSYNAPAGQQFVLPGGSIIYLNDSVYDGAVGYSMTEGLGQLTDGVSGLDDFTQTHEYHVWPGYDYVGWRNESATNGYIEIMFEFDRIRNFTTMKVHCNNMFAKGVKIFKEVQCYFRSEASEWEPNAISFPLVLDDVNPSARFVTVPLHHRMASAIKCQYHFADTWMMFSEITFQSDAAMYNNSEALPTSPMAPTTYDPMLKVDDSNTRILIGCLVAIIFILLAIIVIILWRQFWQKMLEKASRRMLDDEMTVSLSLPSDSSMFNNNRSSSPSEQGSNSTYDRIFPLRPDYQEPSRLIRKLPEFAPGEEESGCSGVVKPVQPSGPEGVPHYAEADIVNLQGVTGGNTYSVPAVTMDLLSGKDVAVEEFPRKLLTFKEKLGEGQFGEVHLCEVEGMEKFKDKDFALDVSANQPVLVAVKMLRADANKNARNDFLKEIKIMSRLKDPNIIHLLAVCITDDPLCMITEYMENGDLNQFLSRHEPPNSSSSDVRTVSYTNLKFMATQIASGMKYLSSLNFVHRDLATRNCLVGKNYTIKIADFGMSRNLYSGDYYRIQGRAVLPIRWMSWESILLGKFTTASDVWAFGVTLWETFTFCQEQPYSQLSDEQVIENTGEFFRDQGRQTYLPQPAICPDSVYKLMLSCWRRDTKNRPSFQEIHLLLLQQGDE

[3] = molecular target: T2, Ephrin type-B receptor 2 (Homo sapiens, UniProt P29323); assay: Inhibition of EPHB2 (unknown origin) assessed as residual activity incubated for 5 mins in presence of [gamma-33ATP] by scintillation counting based radiometry assay
T2 sequence (P29323 whole entry): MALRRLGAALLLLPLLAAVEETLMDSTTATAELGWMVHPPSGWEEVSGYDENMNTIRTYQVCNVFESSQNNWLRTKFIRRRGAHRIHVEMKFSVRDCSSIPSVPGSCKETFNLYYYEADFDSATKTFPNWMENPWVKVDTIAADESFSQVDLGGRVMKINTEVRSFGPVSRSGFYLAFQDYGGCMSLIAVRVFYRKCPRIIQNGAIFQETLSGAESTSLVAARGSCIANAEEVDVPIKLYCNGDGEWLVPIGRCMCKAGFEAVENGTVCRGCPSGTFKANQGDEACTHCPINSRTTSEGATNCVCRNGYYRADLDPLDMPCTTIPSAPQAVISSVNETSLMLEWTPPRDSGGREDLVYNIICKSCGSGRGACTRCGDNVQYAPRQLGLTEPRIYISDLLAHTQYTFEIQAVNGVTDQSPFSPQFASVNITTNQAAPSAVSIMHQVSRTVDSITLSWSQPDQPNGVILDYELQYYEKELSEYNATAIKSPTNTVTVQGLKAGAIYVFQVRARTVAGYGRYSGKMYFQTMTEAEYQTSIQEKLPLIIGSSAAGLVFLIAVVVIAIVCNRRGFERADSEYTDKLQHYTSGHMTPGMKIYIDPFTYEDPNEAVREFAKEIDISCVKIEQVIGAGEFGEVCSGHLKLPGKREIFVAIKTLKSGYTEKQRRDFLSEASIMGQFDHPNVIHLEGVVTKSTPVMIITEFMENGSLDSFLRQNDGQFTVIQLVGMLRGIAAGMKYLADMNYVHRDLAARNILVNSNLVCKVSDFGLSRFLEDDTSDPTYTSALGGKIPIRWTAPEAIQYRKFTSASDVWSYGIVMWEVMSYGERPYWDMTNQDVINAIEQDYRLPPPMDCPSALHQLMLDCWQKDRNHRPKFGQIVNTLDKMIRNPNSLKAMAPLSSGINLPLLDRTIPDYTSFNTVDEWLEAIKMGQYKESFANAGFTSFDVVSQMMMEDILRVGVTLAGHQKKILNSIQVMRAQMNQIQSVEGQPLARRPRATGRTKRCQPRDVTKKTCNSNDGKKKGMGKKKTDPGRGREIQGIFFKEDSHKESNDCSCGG

[4] = Inhibition of VEGFR (unknown origin) assessed as residual activity incubated for 5 mins in presence of [gamma-33ATP] by scintillation counting based radiometry assay; design: species or system Homo sapiens
[5] = molecular target: T3, Mitogen-activated protein kinase kinase kinase kinase 3 (Homo sapiens, UniProt Q8IVH8); assay: Inhibition of MAP4K3 (unknown origin) assessed as residual activity incubated for 5 mins in presence of [gamma-33ATP] by scintillation counting based radiometry assay
T3 sequence (Q8IVH8 whole entry): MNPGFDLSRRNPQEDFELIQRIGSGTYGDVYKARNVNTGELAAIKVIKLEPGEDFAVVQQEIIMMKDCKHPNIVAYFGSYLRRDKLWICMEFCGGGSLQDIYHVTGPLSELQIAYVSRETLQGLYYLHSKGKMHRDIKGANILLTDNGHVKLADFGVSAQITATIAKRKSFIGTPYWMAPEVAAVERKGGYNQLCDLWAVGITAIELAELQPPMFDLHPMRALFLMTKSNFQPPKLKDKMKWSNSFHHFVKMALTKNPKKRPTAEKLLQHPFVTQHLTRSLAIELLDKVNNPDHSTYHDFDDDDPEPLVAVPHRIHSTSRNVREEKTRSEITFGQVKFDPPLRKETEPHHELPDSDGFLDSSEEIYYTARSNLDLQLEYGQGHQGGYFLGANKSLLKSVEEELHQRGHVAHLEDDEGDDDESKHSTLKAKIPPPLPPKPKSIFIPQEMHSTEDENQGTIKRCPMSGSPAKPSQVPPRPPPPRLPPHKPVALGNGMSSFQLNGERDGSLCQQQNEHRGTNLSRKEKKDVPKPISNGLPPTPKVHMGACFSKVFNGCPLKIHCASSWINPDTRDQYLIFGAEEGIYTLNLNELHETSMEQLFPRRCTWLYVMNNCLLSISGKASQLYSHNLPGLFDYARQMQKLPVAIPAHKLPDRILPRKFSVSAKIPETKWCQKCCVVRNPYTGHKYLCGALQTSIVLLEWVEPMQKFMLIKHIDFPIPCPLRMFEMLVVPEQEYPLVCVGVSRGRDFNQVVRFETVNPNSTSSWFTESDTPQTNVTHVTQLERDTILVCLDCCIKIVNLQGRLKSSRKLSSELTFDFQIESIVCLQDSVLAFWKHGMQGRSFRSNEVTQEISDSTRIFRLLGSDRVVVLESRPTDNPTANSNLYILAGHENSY

IC50 [2]: 286 nM
IC50 [3]: 70.8 nM
IC50 [4]: 44.8 nM
IC50 [5]: 240 nM
Structure (SMILES): Cc1ccc(C(=O)Nc2ccc(CN3Cc4cn[nH]c4C3)c(Cl)c2)cc1C#Cc1cnc2cccnn12
CC50 at 72 h [1]: > 50000 nM
